ChEMBL document CHEMBL3885861, “Open TG-GATES”

Species: Rattus norvegicus
Experiment: Open TG-GATES - Regimen: Single
Assay type: toxicity, organism-based, Sprague-Dawley
Set-up: regimen Single, gender Male, age 6 weeks
Conditions: in vivo, po, 0 mg/kg, route gavage, dose level Control; for APTT / Bas / Eos / Fbg / Hb / Ht / Lym / MCH / MCHC / MCV / Mono / Neu / PT / Plat / RBC / Ret / WBC: tissue Blood; for KIDNEY_L / KIDNEY_R / KIDNEY_TOTAL: tissue Kidney; for LIVER: tissue Liver; for A/G / ALP / ALT / AST / BUN / CRE / Ca / Cl / DBIL / GLC / IP / K / LDH / Na / PL / RALB / TBIL / TC / TG / TP / gamma-GTP: tissue Plasma

In the case of `COc1ccc(Cl)cc1C(=O)NCCc1ccc(S(=O)(=O)NC(=O)NC2CCCCC2)cc1` [GLYBURIDE], the TERMINAL_BW (3 h) is reported as 216 g, the APTT (3 h) is reported as 19.2 s and the Bas (3 h) is reported as 0%. For the same molecule, the Eos (3 h) was 1%, the Fbg (3 h) was 221.2 mg/dL and the Hb (3 h) was 13.2 g/dL. It also gave a Ht (3 h) of 40.6%, a Lym (3 h) of 70.4% and an MCH (3 h) of 21 pg. For the same molecule, the MCHC (3 h) was 32.4%, the MCV (3 h) was 64.7 fL and the Mono (3 h) was 3%. The Neu (3 h) was 24.4%, the PT (3 h) was 12.3 s and the Plat (3 h) was 125.5 x10_4/uL. The RBC (3 h) was 628.8 x10_4/ul, the Ret (3 h) was 8% and the WBC (3 h) was 84.1 x10_2/uL. It also gave a KIDNEY_L (3 h) of 1 g, a KIDNEY_R (3 h) of 1 g and a KIDNEY_TOTAL (3 h) of 1.9 g. For the same molecule, the LIVER (3 h) was 10.1 g, the A/G (3 h) was 1.7 and the ALP (3 h) was 1085 IU/L. For the same molecule, the ALT (3 h) was 41.8 IU/L, the AST (3 h) was 70.8 IU/L and the BUN (3 h) was 11.8 mg/dL. It also gave a CRE (3 h) of 0.4 mg/dL, a Ca (3 h) of 11 mg/dL and a Cl (3 h) of 104 meq/L. The DBIL (3 h) was 0.2 mg/dL, the GLC (3 h) was 191.6 mg/dL and the IP (3 h) was 8.8 mg/dL. For the same molecule, the K (3 h) was 3.8 meq/L, the LDH (3 h) was 166.6 IU/L and the Na (3 h) was 141 meq/L. It also gave a PL (3 h) of 187.6 mg/dL, an RALB (3 h) of 3.5 g/dL and a TBIL (3 h) of 0.2 mg/dL. For the same molecule, the TC (3 h) was 88 mg/dL, the TG (3 h) was 160.2 mg/dL and the TP (3 h) was 5.6 g/dL. The gamma-GTP (3 h) was 0.8 IU/L, the TERMINAL_BW (6 h) was 212.5 g and the APTT (6 h) was 19.8 s. It also gave a Bas (6 h) of 0%, an Eos (6 h) of 1% and a Fbg (6 h) of 228.6 mg/dL. The Hb (6 h) was 13.6 g/dL, the Ht (6 h) was 42.2% and the Lym (6 h) was 70.2%. For the same molecule, the MCH (6 h) was 20.1 pg, the MCHC (6 h) was 32.2% and the MCV (6 h) was 62.4 fL. It also gave a Mono (6 h) of 3.4%, a Neu (6 h) of 24.2% and a PT (6 h) of 12.5 s. For the same molecule, the Plat (6 h) was 122.5 x10_4/uL, the RBC (6 h) was 676.8 x10_4/ul and the Ret (6 h) was 7.8%. It also gave a WBC (6 h) of 87.5 x10_2/uL, a KIDNEY_L (6 h) of 1 g and a KIDNEY_R (6 h) of 1 g. The KIDNEY_TOTAL (6 h) was 2 g, the LIVER (6 h) was 9.5 g and the A/G (6 h) was 1.6. For the same molecule, the ALP (6 h) was 1140.4 IU/L, the ALT (6 h) was 35 IU/L and the AST (6 h) was 67.4 IU/L. The BUN (6 h) was 8.8 mg/dL, the CRE (6 h) was 0.4 mg/dL and the Ca (6 h) was 10.9 mg/dL. It also gave a Cl (6 h) of 103 meq/L, a DBIL (6 h) of 0.092 mg/dL and a GLC (6 h) of 207.2 mg/dL. For the same molecule, the IP (6 h) was 9.8 mg/dL, the K (6 h) was 3.6 meq/L and the LDH (6 h) was 159.4 IU/L. It also gave a Na (6 h) of 141.2 meq/L, a PL (6 h) of 148.6 mg/dL and an RALB (6 h) of 3.5 g/dL. The TBIL (6 h) was 0.2 mg/dL, the TC (6 h) was 77.2 mg/dL and the TG (6 h) was 65.2 mg/dL. It also gave a TP (6 h) of 5.6 g/dL, a gamma-GTP (6 h) of 1 IU/L and a TERMINAL_BW (9 h) of 213.3 g. The APTT (9 h) was 19.1 s, the Bas (9 h) was 0% and the Eos (9 h) was 1%. The Fbg (9 h) was 220 mg/dL, the Hb (9 h) was 13 g/dL and the Ht (9 h) was 39.7%. It also gave a Lym (9 h) of 77%, an MCH (9 h) of 20.8 pg and an MCHC (9 h) of 32.7%. It also gave an MCV (9 h) of 63.6 fL, a Mono (9 h) of 2.2% and a Neu (9 h) of 18.8%. For the same molecule, the PT (9 h) was 12.7 s, the Plat (9 h) was 133.8 x10_4/uL and the RBC (9 h) was 625.4 x10_4/ul. The Ret (9 h) was 8.1%, the WBC (9 h) was 102.8 x10_2/uL and the KIDNEY_L (9 h) was 0.9 g. It also gave a KIDNEY_R (9 h) of 0.9 g, a KIDNEY_TOTAL (9 h) of 1.9 g and an LIVER (9 h) of 8.8 g. It also gave an A/G (9 h) of 1.7, an ALP (9 h) of 1066.8 IU/L and an ALT (9 h) of 30.8 IU/L. The AST (9 h) was 61.6 IU/L, the BUN (9 h) was 10.8 mg/dL and the CRE (9 h) was 0.4 mg/dL. It also gave a Ca (9 h) of 10.1 mg/dL, a Cl (9 h) of 102.2 meq/L and a DBIL (9 h) of 0.09 mg/dL. It also gave a GLC (9 h) of 216.2 mg/dL, an IP (9 h) of 11.1 mg/dL and a K (9 h) of 3.5 meq/L. The LDH (9 h) was 125.8 IU/L, the Na (9 h) was 140.8 meq/L and the PL (9 h) was 137.4 mg/dL. For the same molecule, the RALB (9 h) was 3.4 g/dL, the TBIL (9 h) was 0.1 mg/dL and the TC (9 h) was 72.8 mg/dL. The TG (9 h) was 52.2 mg/dL, the TP (9 h) was 5.4 g/dL and the gamma-GTP (9 h) was 1.6 IU/L. The TERMINAL_BW (24 h) was 226.7 g, the APTT (24 h) was 18.3 s and the Bas (24 h) was 0.4%. The Eos (24 h) was 1%, the Fbg (24 h) was 218.6 mg/dL and the Hb (24 h) was 13.2 g/dL. It also gave a Ht (24 h) of 38%, a Lym (24 h) of 77% and an MCH (24 h) of 21.7 pg. For the same molecule, the MCHC (24 h) was 34.7%, the MCV (24 h) was 62.4 fL and the Mono (24 h) was 2.4%. The Neu (24 h) was 18.6%, the PT (24 h) was 12.5 s and the Plat (24 h) was 126.2 x10_4/uL. It also gave an RBC (24 h) of 609.6 x10_4/ul, a Ret (24 h) of 7.7% and a WBC (24 h) of 105.9 x10_2/uL. It also gave a KIDNEY_L (24 h) of 1 g, a KIDNEY_R (24 h) of 1 g and a KIDNEY_TOTAL (24 h) of 2 g. For the same molecule, the LIVER (24 h) was 10.9 g, the A/G (24 h) was 1.5 and the ALP (24 h) was 1024.2 IU/L. The ALT (24 h) was 32.2 IU/L, the AST (24 h) was 61.4 IU/L and the BUN (24 h) was 16.4 mg/dL. It also gave a CRE (24 h) of 0.4 mg/dL, a Ca (24 h) of 10.7 mg/dL and a Cl (24 h) of 102.2 meq/L. For the same molecule, the DBIL (24 h) was 0.1 mg/dL, the GLC (24 h) was 215.6 mg/dL and the IP (24 h) was 7.5 mg/dL. The K (24 h) was 3.7 meq/L, the LDH (24 h) was 189.6 IU/L and the Na (24 h) was 141.2 meq/L. The PL (24 h) was 146.2 mg/dL, the RALB (24 h) was 3.3 g/dL and the TBIL (24 h) was 0.2 mg/dL. The TC (24 h) was 73.2 mg/dL, the TG (24 h) was 97.8 mg/dL and the TP (24 h) was 5.4 g/dL. The gamma-GTP (24 h) was 1.4 IU/L.
